US8367328B2, “Method for synthesizing DNA” (Takara Bio Inc., priority 1998, dated 2013)

How the values were obtained:
[1] = biological target: T1, Taq DNA Polymerase (Thermus aquaticus, UniProt P19821); assay: PCR with Taq DNA Polymerase in the presence of cationic complexes; assay type: biochemical; conditions: for Amount of amplified DNA relative to No Addition (=1), Taq: 100 pg E. coli JM109 genomic DNA, primers Eco1/Eco2, 30 cycles 98°C 5 s–68°C 2 min, FM-BIO 100
T1 construct: purchased Takara Shuzo Co., Ltd
T1 sequence (P19821 whole entry): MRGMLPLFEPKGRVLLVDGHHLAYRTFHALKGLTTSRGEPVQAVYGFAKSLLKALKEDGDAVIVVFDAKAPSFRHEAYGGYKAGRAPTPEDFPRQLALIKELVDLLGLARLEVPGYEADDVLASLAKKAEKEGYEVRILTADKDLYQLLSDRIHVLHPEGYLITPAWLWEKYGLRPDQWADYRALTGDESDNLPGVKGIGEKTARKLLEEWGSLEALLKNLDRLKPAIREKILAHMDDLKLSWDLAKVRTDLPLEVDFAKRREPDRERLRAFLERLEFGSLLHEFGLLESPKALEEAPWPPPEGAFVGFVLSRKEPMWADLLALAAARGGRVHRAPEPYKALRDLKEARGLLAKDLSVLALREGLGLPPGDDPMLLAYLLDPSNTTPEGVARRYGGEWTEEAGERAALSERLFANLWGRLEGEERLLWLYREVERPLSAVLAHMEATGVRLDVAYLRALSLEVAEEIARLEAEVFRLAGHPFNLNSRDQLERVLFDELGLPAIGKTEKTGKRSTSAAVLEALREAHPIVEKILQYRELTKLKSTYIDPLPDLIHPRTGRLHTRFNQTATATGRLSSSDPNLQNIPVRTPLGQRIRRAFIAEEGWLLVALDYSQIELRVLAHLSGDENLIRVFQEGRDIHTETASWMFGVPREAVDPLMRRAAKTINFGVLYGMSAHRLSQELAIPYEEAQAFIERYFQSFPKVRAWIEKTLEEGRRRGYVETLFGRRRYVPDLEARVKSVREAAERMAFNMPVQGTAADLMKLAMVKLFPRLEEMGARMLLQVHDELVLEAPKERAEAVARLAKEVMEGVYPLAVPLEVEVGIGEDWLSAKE
Source text: Using hexaamminecobalt (III) chloride ([Co(NH3)6]Cl3) (manufactured by Sigma), tris(ethylenediamine)cobalt (III) chloride ([Co(C2H8N2)3]Cl3) (manufactured by Aldrich), or tris(ethylenediamine)rhodium (III) trichloride•trihydrate ([Rh(C2H8N2)3]Cl3.3H2O) (manufactured by Aldrich), the effects on the amplification reaction by various kinds of DNA polymerases were examined. As the DNA polymerases, TaKaRa Taq DNA Polymerase (hereinafter referred to as “Taq DNA Polymerase” manufactured by Takara Shuzo Co., Ltd.), Pyrobest DNA Polymerase (manufactured by Takara Shuzo Co., Ltd.) and Ex Taq DNA Polymerase (manufactured by Takara Shuzo Co., Ltd.) were used.
A reaction mixture comprising Escherichia coli JM109 genomic DNA as a template, primers Eco1 and Eco2 as a primer pair, and DNA polymerase was prepared, and PCR was carried out. The compositions of the reaction mixture for each enzyme are as follows.
5 μl of buffer for 10×Taq PCR buffer (manufactured by Takara Shuzo Co., Ltd.), 0.2 mM each of dATP, dCTP, dGTP and dTTP, 1.25 U of Taq DNA Polymerase, 100 pg of Escherichia coli JM109 genomic DNA, and 10 pmol each of primers Eco1 and Eco2 (a final volume being 50 μl).
Further, an aqueous solution of the above-mentioned complexes each so as to have a final concentration of 50 μM, 100 μM, or 200 μM was added to the above reaction mixture.
The reaction was carried out in Fast mode by using TaKaRa PCR Thermal Cycler Personal (manufactured by Takara Shuzo Co., Ltd.). The reaction conditions are as follows. When using Taq DNA Polymerase and Pyrobest DNA Polymerase, the reaction in 30 cycles was carried out for each of these reaction mixtures, wherein one cycle of reaction comprises a process consisting of 98° C., 5 seconds—68° C., 2 minutes, and when using ExTaq DNA Polymerase, the reaction in 30 cycles was carried out for each of these reaction mixtures, wherein one cycle of reaction comprises a process consisting of 98° C., 5 seconds—68° C., 1 minute. After the termination of the reaction, 5 μl of the resulting reaction mixture was subjected to electrophoresis on 2% agarose gel containing ethidium bromide in an amount of 0.00005%. The gel after the electrophoresis was subjected to ultraviolet irradiation to visualize the band ascribed to the amplified product, whereby an amplified fragment was confirmed. The amount of amplified DNA was numerically explained by using a fluorescent image analyzer FM-BIO 100 (manufactured by Takara Shuzo Co., Ltd.).
The DNA polymerases used and the composition for the reaction mixture were similar to those in Example 17, except for the cationic complex, where in cases of using Taq DNA Polymerase and Pyrobest DNA Polymerase, hexaamminecobalt (III) chloride was added so as to have a final concentration of 100 μM, and in a case of using ExTaq DNA Polymerase, hexaamminecobalt (III) chloride was added so as to have a final concentration of 50 μM, respectively.
The reaction was carried out in Fast mode by using TaKaRa PCR Thermal Cycler Personal. The reaction conditions are as follows. When using Taq DNA Polymerase and Pyrobest DNA Polymerase, the reaction in 30 cycles was carried out, wherein one cycle of reaction comprises a process consisting of 98° C., […], 60 seconds or 80 seconds or 100 seconds or 120 seconds. When using ExTaq DNA Polymerase, the reaction in 30 cycles was carried out, wherein one cycle of reaction comprises a process consisting of 98° C., 5 seconds—68° C., 30 seconds or 40 seconds or 50 seconds or 60 seconds.
On the other hand, as a control, the time period or number of cycles for annealing and extension reaction were determined so as to obtain the same amount of the amount of amplified product for one without addition of the cationic complex mentioned above.
After the termination of the reaction, 5 μL of the resulting reaction mixture was subjected to electrophoresis on 2% agarose gel containing ethidium bromide in an amount of 0.00005%. […]

[2] = biological target: T2, TaKaRa Taq DNA Polymerase (Thermus aquaticus, UniProt P19821); assay: PCR with TaKaRa Taq DNA Polymerase in the presence of acidic substances; assay type: biochemical; conditions: 1 kb fragment; 100 pg λDNA, primers λ1/λ3, 30 cycles 98°C 10 s–68°C 1 min, 50 μl; amount added 1 μg
T2 construct: purchased Takara Shuzo Co., Ltd
T2 sequence (P19821 whole entry, the tested form may be a part): as the sequence (P19821 whole entry) above
Method: Using the sulfated-fucose-containing polysaccharide-F obtained in Example 6 described above or sodium alginate, the effects of these acidic substances imparted on TaKaRa Taq DNA Polymerase (manufactured by Takara Shuzo Co., Ltd.) were examined. In this example, PCR was carried out in normal mode by using TaKaRa PCR Thermal Cycler Personal.
A reaction mixture comprising λDNA as a template, primers λ1 and λ3 as a primer pair, and TaKaRa Taq DNA Polymerase as DNA polymerase was prepared, and PCR was carried out. The composition of the reaction mixture is as follows.
TaKaRa Taq DNA Polymerase buffer, 0.2 mM each of dATP, dCTP, dGTP and dTTP, 1.25 U of TaKaRa Taq DNA Polymerase, 100 pg of λDNA, and 10 pmol each of primers λ1 and λ3 (a final volume being 50 μl). Further, 0.1 ng or 0.25 ng each of the sulfated-fucose-containing polysaccharide-F or 1 μg of sodium alginate was respectively added to the above reaction mixture.
The reaction was carried out in 30 cycles, wherein one cycle of reaction comprises a process consisting of 98° C., 10 seconds—68° C., 1 minute. After the termination of the reaction, 5 μl of the resulting reaction mixture was subjected to electrophoresis on 1% agarose gel containing ethidium bromide in an amount of 0.00005%, whereby an amplified fragment was confirmed.

## NCCN.NCCN.NCCN.O.O.O.[Cl][Rh]([Cl])[Cl] [[Rh(H2NCH2CH2NH2)3]Cl3, tris(ethylenediamine)rhodium (III) trichloride•trihydrate]
[1]; complex 50 μM
  Amount of amplified DNA relative to No Addition (=1), Taq: 1.4
[1]; complex 100 μM
  Amount of amplified DNA relative to No Addition (=1), Taq: 2.1
[1]; complex 200 μM
  Amount of amplified DNA relative to No Addition (=1), Taq: 2.5

## N.N.N.N.N.N.[Cl-].[Cl-].[Cl-].[Co+3] [[Co(NH3)6]Cl3, hexaamminecobalt (III) chloride]
[1]; complex 50 μM
  Amount of amplified DNA relative to No Addition (=1), Taq: 2.3
[1]; complex 100 μM
  Amount of amplified DNA relative to No Addition (=1), Taq: 2.9
[1]; Taq 0.625 U + 100 μM complex vs 1.25 U without addition
  Amplification with one-half the usual enzyme amount versus usual amount without addition: almost the same level
[1]; Taq, 10 ng E. coli genome, primers Eco1/Eco5 (10 kb), 30 cycles 98°C 5 s–68°C 10 min, 10 μM or 20 μM, only slight without addition
  Amplification of desired long DNA fragment: excellently amplified
[1]; Taq, 100 μM
  Reaction time period as fraction of that of no addition: about ⅗
[1]; Taq, 100 μM complex added, 98°C 5 s–68°C 60 s, 30 cycles (no addition: 120 s, 31 cycles, 4911 s)
  Time Period Required (for same amount of amplified product): 2953 s
[1]; Taq, 100 μM complex, primers 2–20 pmol tested, no amplification without addition
  Primer amount with which a fragment can still be amplified: 2 pmol
[1]; Taq, 100 μM complex, templates 1 pg–1 ng tested, no amplification at 1 pg without addition
  Amount of template DNA at which amplification was still possible: 1 pg
[1]; Taq, 0.75 mM magnesium chloride (usual 1.5 mM), 100 μM complex, no amplification without addition
  Amplification in low-magnesium reaction mixture: allowed to amplify

## NCCN.NCCN.NCCN.[Cl-].[Cl-].[Cl-].[Co+3] [[Co(H2NCH2CH2NH2)3]Cl3, tris(ethylenediamine)cobalt (III) chloride]
[1]; complex 50 μM
  Amount of amplified DNA relative to No Addition (=1), Taq: 2.6
[1]; complex 100 μM
  Amount of amplified DNA relative to No Addition (=1), Taq: 3.0

## sodium alginate
[2]
  Amplification Results: + (Amplification being observed)
